Here are results for ten compounds from US10711004B2 (Genentech, Inc., priority 2018, dated 2020).

Structures are written as SMILES. Where two headings read alike, the source gives them in different places.

For the assay, the target named is human TRPA1 channel (Homo sapiens (Human), UniProt O75762). Kind of assay: hTRPA1 CHO Ca2+ FLIPR Tetra assay, block of cinnamaldehyde induced calcium influx. The assay is classed as cell-based. The settings on record: CHO cells expressing TRPA1, Hill coefficient fixed to 1.5. In a few lines:
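IC50 values come from fixed-Hill fits of inhibition of cinnamaldehyde-induced (about EC50 level) calcium influx measured by FLIPR Tetra. Before agonist, TRPA1-expressing CHO cells loaded with calcium indicator were exposed to compound for 10 or 90 min at room temperature in HEPES-buffered HBSS, pH 7.4, with 0.02% BSA.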

The mark [1] stands for this setting: read-out: hTRPA1 IC50 (10 min), compounds incubated 10 minutes at room temperature before cinnamaldehyde agonist.
[2] abbreviates: read-out: hTRPA1 IC50 (90 min), compounds incubated 90 minutes at room temperature before cinnamaldehyde agonist.

human TRPA1 channel, sequence (O75762 whole entry): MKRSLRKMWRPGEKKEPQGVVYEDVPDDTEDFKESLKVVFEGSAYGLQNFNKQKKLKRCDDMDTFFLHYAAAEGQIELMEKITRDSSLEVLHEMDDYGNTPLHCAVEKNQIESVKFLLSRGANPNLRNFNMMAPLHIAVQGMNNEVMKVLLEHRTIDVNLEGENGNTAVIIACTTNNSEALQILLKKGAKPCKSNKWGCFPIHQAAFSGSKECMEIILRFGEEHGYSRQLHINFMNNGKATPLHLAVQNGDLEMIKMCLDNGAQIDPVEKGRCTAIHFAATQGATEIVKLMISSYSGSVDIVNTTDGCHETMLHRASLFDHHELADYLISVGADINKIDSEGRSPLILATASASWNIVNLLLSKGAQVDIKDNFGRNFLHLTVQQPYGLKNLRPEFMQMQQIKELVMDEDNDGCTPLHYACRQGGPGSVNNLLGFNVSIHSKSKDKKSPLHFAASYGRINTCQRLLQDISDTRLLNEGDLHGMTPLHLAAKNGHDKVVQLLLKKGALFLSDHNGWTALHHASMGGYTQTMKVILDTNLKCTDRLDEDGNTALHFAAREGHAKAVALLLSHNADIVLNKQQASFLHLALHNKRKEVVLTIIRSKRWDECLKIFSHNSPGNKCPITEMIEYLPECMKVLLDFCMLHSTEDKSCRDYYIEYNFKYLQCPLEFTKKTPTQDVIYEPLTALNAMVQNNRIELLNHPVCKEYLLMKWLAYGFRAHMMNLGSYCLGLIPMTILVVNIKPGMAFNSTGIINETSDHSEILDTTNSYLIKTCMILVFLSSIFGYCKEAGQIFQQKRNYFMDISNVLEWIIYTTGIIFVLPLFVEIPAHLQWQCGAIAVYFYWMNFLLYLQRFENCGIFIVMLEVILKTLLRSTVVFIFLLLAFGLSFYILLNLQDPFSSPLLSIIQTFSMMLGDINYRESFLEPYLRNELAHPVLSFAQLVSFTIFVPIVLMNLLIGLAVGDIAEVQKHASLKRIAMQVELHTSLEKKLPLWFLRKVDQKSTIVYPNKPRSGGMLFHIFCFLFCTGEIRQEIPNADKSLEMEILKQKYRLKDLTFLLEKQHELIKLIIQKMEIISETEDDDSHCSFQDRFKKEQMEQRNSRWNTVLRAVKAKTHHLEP

Usually IC50 stands for the concentration at which inhibition is half-maximal. Turning to `Cn1cnc2ncn(Cc3nc([C@H]4[C@@H]5C=C(c6ccccn6)C[C@@H]54)no3)c(=O)c21` [Example Compound 129, 7-methyl-1-((3-((1S,5S,6R)-3-(pyridin-2-yl)bicyclo[3.1.0]hex-2-en-6-yl)-1,2,4-oxadiazol-5-yl)methyl)-1,7-dihydro-6H-purin-6-one], the IC50 by setting is: under setting [1], 209 nM; under setting [2], 210 nM. For the compound `Cn1nnc2ncn(Cc3nc([C@H]4[C@@H]5CN(c6cc(Cl)ccn6)C[C@@H]54)no3)c(=O)c21` [Example Compound 130, 6-((3-((1R,5S,6r)-3-(4-chloropyridin-2-yl)-3-azabicyclo[3.1.0]hexan-6-yl)-1,2,4-oxadiazol-5-yl)methyl)-1-methyl-1,6-dihydro-7H-[1,2,3]triazolo[4,5-d]pyrimidin-7-one], the 50% inhibitory concentration (IC50) under setting [1] came out at 74.5 nM and the IC50 under setting [2] is 44 nM. The corresponding values for `Cn1cnc2ncn(Cc3nc([C@H]4[C@@H]5CN(c6ccncc6F)C[C@@H]54)no3)c(=O)c21` [Example Compound 131, 1-((3-((1R,5S,6r)-3-(3-fluoropyridin-4-yl)-3-azabicyclo[3.1.0]hexan-6-yl)-1,2,4-oxadiazol-5-yl)methyl)-7-methyl-1,7-dihydro-6H-purin-6-one] are 383 nM and 110 nM. In the same order, the values of `Cn1cnc2ncn(Cc3nc([C@H]4[C@@H]5CN(c6ncccc6F)C[C@@H]54)no3)c(=O)c21` [Example Compound 132, 1-((3-((1R,5S,6r)-3-(3-fluoropyridin-2-yl)-3-azabicyclo[3.1.0]hexan-6-yl)-1,2,4-oxadiazol-5-yl)methyl)-7-methyl-1,7-dihydro-6H-purin-6-one] are 143 nM and 110 nM. In the same order, the values of `Cn1cnc2ncn(Cc3nc([C@H]4[C@@H]5C=C(c6cccnc6)C[C@@H]54)no3)c(=O)c21` [Example Compound 133, 7-methyl-1-((3-((1S,5S,6R)-3-(pyridin-3-yl)bicyclo[3.1.0]hex-2-en-6-yl)-1,2,4-oxadiazol-5-yl)methyl)-1,7-dihydro-6H-purin-6-one] are 179 nM and 160 nM. As for `Cn1cnc2ncn(Cc3nc([C@@H]4[C@H]5C=C(c6cccnc6)C[C@H]54)no3)c(=O)c21` [Example Compound 134, 7-methyl-1-((3-((1R,5R,6S)-3-(pyridin-3-yl)bicyclo[3.1.0]hex-2-en-6-yl)-1,2,4-oxadiazol-5-yl)methyl)-1,7-dihydro-6H-purin-6-one], the 50% inhibitory concentration (IC50) under setting [1] came out at 348 nM and the 50% inhibitory concentration (IC50) under setting [2] turned out to be 440 nM. The corresponding values for `Cn1cnc2ncn(Cc3nc([C@H]4[C@@H]5C=C(c6ccc7ccncc7c6)C[C@@H]54)no3)c(=O)c21` [Example Compound 135, 1-((3-((1S,5S,6R)-3-(isoquinolin-7-yl)bicyclo[3.1.0]hex-2-en-6-yl)-1,2,4-oxadiazol-5-yl)methyl)-7-methyl-1,7-dihydro-6H-purin-6-one] are 58.7 nM and 48 nM. Consider `Cn1cnc2ncn(Cc3nc([C@@H]4[C@H]5C=C(c6ccc7ccncc7c6)C[C@H]54)no3)c(=O)c21` [Example Compound 136, 1-((3-((1R,5R,6S)-3-(isoquinolin-7-yl)bicyclo[3.1.0]hex-2-en-6-yl)-1,2,4-oxadiazol-5-yl)methyl)-7-methyl-1,7-dihydro-6H-purin-6-one], for which the IC50 reads like this: under setting [1], 16.6 nM; under setting [2], 7.6 nM. On to `Cn1cnc2ncn(Cc3nc([C@H]4[C@@H]5CN(c6ccc7c(c6)CCCC7)C[C@@H]54)no3)c(=O)c21` [Example Compound 136], for which the half-maximal inhibitory concentration (IC50) under setting [1] was 685 nM.

For `Cc1nn(C)c2ncn(Cc3nc([C@H]4[C@@H]5CN(c6cc(Cl)ccn6)C[C@@H]54)no3)c(=O)c12` [Example Compound 137, 5-((3-((1R,5S,6r)-3-(4-chloropyridin-2-yl)-3-azabicyclo[3.1.0]hexan-6-yl)-1,2,4-oxadiazol-5-yl)methyl)-1,3-dimethyl-1,5-dihydro-4H-pyrazolo[3,4-d]pyrimidin-4-one], the IC50 under setting [1] is 58.5 nM and the IC50 under setting [2] was determined as 43 nM.
